In US4711883A, “Substituted 3-(4-phenyl-1-piperazinyl)alkylquinazolin-2,4-(1H,3H) diones, methods of preparation, compositions and method of use” (Ortho Pharmaceutical Corporation, priority 1985, dated 1987):
Counter-ions that a name gives are not always drawn. Like-named read-outs stand apart in the source and are kept apart here.

Assays:
α1 -adrenergic = α1 -adrenergic blockade: inhibition of phenylephrine-induced increases in diastolic blood pressure in the anesthetized dog; format: in vivo; conditions: for Percent Inhibition of Phenylephrin-Induced Pressor Responses: dog
Protocol: The α1 -adrenergic blockade: inhibition of phenylephrine-inducedincreases in diastolic blood pressure in the anesthetized dog was determined according to the method set forth in the following literature reference:
Arunlakshana, O, and Schild, H. O. (1959). Some Quantitative Uses of Drug Antagonists. Br. J. Pharmac. Chemother., 14:48-58.
The procedure is as follows:
Dogs are anesthetized and bilaterally vagotomized. A femoral artery and vein are cannulated for detection of diastolic blood pressure and drug administration, respectively. Percent inhibition of alpha adrenergic receptor antagonism is quantitiated by determining the dose-response (increase in diastolic pressure) relationship of phenylephrine before and after various doses of the antagonist. Statistical analysis of percent inhibition is calculated by use of the variance component estimation test. In addition, the Dose Ratio (DR20) may be calculated for potency comparisons and is defined as the dose of antagonist required to produce an agonist dose ratio of 20.

[1] = system: spontaneously hypertensive rats (SHR); assay: antihypertensive evaluation, systolic blood pressure, single oral dose, conscious SHR (tail cuff); format: in vivo
Protocol: (§1) The percent recovery is calculated by dividing the maximum decrease in mean arterial blood pressure (mm Hg) caused by tilt into the amount of rise in blood pressure at 15 seconds after initiating tilt. The antihypertensive as well as teh alpha1 -adrenergic blocking properties of the novel quinazolinedione piperazines were evaluated and set forth in Table 2.
The antihypertensive evaluation followed the following procedure:
Adult male spontaneously hypertensive rats (SHR) were placed in restrainers in a chamber warmed to 32° C. A standard indirect method employing a pneumatic pulse transducer and inflatable tail cuff was used to measure systolic blood pressure (SBP) in the conscious state. After baseline SBP were recorded, groups of 4 SHR received a single oral dose of drug or vehicle (0.5% methylcellulose) administered with a gavage tube. SBP's were obtained at 1/2, 1, 2, 3 and 4 hours post treatment. Changes in SBP's were statistically compared to the vehicle effect using Students t test, at p ε0.05.

[2] = system: spontaneously hypertensive rats; assay: bioavailability comparison, MABP in conscious cannulated SHR (i.v. and oral); format: in vivo, spontaneously hypertensive rats (SHR); conditions: for ED10: Rattus norvegicus
Protocol: (§2) The bioavailability comparison was determined in conscious direct cannulated spontaneously hypertensive rats. Briefly, the SHRs were anesthetized with ether and a carotid arterial catheter was inserted for measurement of arterial blood pressure while a jugular catheter was inserted for i.v. drug administration. For oral dosing, a catheter was also passed via the esophagus into the stomach. All catheters were exteriorized at the nape of the neck and animals were placed in restrainers and allowed to recover from surgery. Blood pressure was continuously recorded. Drugs were dissolved in 5% dextrose in water and administered as a bolus at time zero. Bioavailability results are presented in Table 3. | (a) I.V. bolus dose that lowers MABP in conscious SHR by 10%. | (b) Oral gavage dose that lowers MABP in conscious cannulated SHR by 10%. | (c) Bioavailability ratio with small numbers (close to unity) indicating | good bioavailability.

[3] = as above; format: in vivo, spontaneously hypertensive rats (SHR); conditions: rat, in vivo; SHR; small numbers (close to unity) indicate good bioavailability; read-out: Ratio P.O./I.V. (bioavailability ratio)
Protocol: as §2

acetylcholine = assay: autonomic tests: acetylcholine blood pressure responses; format: in vivo; conditions: dogs
[4] = system: tilt reflex recovery response; design: species or system mongrel dogs; conditions: dog, in vivo
Protocol: as §1, with “The tilt reflex recovery response is determined as follows: Adult mongrel dogs of either sex are anesthetized with pentobarbital sodium, secured to a tilt table and surgically prepared for measurement of blood pressure and heart rate. Animals are tilted and the percent recovery of the tilt response in the blood pressure is quantitated. The percent” for “The percent”

histamine = assay: autonomic tests: histamine blood pressure responses; format: in vivo; conditions: dogs
[5] = iv, conscious SHR, I.V. bolus, read-out: I.V. E.D.-10% (I.V. bolus dose that lowers MABP by 10%)
[6] = conscious cannulated SHR, oral gavage, read-out: P.O. E.D.-10% (oral gavage dose that lowers MABP by 10%)

inhibition of the tilt reflex recovery response [4] | Structure (SMILES) | Peak Change in Systolic Blood Pressure ([1]; 0.5 mg/kg PO) | Peak Change in Systolic Blood Pressure ([1]; 0.1 mg/kg PO) | ED10 [2, 5] | ED10 [2, 6] | selectivity ratio [3] | anticholinergic effect (inhibition of acetylcholine blood pressure responses) (acetylcholine) | antihistaminic effect (inhibition of histamine blood pressure responses) (histamine) | further results
 | COc1ccccc1N1CCN(CCn2c(=O)[nH]c3c(Cl)cc(OC)c(OC)c3c2=O)CC1 [B, 8-chloro-3-{2-[4-(2-methoxyphenyl)-1-piperazinyl]ethyl}-5,6-dimethoxyquinazolin-2,4-(1H,3H)-dione] |  |  |  |  |  |  |  | Percent Inhibition of Phenylephrin-Induced Pressor Responses (α1 -adrenergic; 0.03 mg/kg IV): 60%; Percent Inhibition of Phenylephrin-Induced Pressor Responses (α1 -adrenergic; 0.2 mg/kg IV): 93%; Peak Change in Systolic Blood Pressure ([1]; 10 mg/kg PO): -72 mm Hg
 | COc1cc2[nH]c(=O)n(CCN3CCN(c4ccccc4OC)CC3)c(=O)c2cc1OC [C, 6,7-dimethoxy-3-{2-[4-(2-methoxyphenyl)-1-piperazinyl]ethyl}-quinazolin-2,4-(1H,3H)dione] | -69 mm Hg |  |  |  |  |  |  | Percent Inhibition of Phenylephrin-Induced Pressor Responses (α1 -adrenergic; 0.1 mg/kg IV): 95%
 | Br.COc1ccccc1N1CCN(CCn2c(=O)[nH]c3ccc(O)c(O)c3c2=O)CC1.O [D, 5,6-Dihydroxy-3-{2-[4-(2-methoxyphenyl)-1-piperazinyl]ethyl}-quinazolin-2,4(1H,3H)-dione monohydrobromide monohydrate] |  | -60 mm Hg |  |  |  |  |  | Percent Inhibition of Phenylephrin-Induced Pressor Responses (α1 -adrenergic; 0.0303 mg/kg IV): 89%; Peak Change in Systolic Blood Pressure ([1]; 0.05 mg/kg PO): -58 mm Hg
 | COc1ccc(N2CCN(CCn3c(=O)[nH]c4ccc(OC)c(OC)c4c3=O)CC2)cc1 [E] |  |  |  |  |  |  |  | Percent Inhibition of Phenylephrin-Induced Pressor Responses (α1 -adrenergic; 1.0 mg/kg IV): 80%; Peak Change in Systolic Blood Pressure ([1]; 20 mg/kg PO): -50 mm Hg
83%±8 | COc1ccccc1N1CCN(CCn2c(=O)[nH]c3ccccc3c2=O)CC1 [Compound Z, reference compound] |  | -40 mm Hg | 0.5 mg/kg | 370 mg/kg | 740 | inhibits histamine and acetylcholine blood pressure responses | inhibits histamine and acetylcholine blood pressure responses | Percent Inhibition of Phenylephrin-Induced Pressor Responses (α1 -adrenergic; 0.010 mg/kg IV): 100%
37%±12 | COc1ccccc1N1CCN(CCn2c(=O)[nH]c3ccc(OC)c(OC)c3c2=O)CC1 [Compound A, 3-{2-[4-(2-Methoxyphenyl)-1-piperazinyl]ethyl}-5,6-dimethoxyquinazolin-2,4-(1H,3H)dione monohydrobromide] | -85 mm Hg | -58 mm Hg | 1.8 mg/kg | 70 mg/kg | 38.9 | almost no antihistaminic or anticholinergic effect | almost no antihistaminic or anticholinergic effect | DR20 (dose of antagonist required to produce an agonist dose ratio of 20) (α1 -adrenergic; anesthetized dog, IV, phenylephrine): 0.0203 mg/kg; Percent Inhibition of Phenylephrin-Induced Pressor Responses (α1 -adrenergic; 0.0203 (DR20) mg/kg IV): 100%; oral hypotensive / antihypertensive activity (in words) ([1]; oral): orally effective antihypertensive profile; bioavailability profile (in words) ([2]; oral/i.v. ratios compared with prior art): unexpected superior bioavailability
